Data from article PMC8131363 (Scientific Reports, 2021).
pEC50: −log10 of the molar value. Where two headings read alike, the source gives them in different places.

What was measured:
cCaSR [1] = target: T1, cCaSR (Felis catus, UniProt C7FF08); experiment: cCaSR PAM luminescence assay, double injection with 0.5 mM CaCl2, HEK293/T-REx/natClytin-cCaSR; conditions: Supplementary Table I, PAM assay, dash = no activity
T1 sequence (C7FF08 1-1081): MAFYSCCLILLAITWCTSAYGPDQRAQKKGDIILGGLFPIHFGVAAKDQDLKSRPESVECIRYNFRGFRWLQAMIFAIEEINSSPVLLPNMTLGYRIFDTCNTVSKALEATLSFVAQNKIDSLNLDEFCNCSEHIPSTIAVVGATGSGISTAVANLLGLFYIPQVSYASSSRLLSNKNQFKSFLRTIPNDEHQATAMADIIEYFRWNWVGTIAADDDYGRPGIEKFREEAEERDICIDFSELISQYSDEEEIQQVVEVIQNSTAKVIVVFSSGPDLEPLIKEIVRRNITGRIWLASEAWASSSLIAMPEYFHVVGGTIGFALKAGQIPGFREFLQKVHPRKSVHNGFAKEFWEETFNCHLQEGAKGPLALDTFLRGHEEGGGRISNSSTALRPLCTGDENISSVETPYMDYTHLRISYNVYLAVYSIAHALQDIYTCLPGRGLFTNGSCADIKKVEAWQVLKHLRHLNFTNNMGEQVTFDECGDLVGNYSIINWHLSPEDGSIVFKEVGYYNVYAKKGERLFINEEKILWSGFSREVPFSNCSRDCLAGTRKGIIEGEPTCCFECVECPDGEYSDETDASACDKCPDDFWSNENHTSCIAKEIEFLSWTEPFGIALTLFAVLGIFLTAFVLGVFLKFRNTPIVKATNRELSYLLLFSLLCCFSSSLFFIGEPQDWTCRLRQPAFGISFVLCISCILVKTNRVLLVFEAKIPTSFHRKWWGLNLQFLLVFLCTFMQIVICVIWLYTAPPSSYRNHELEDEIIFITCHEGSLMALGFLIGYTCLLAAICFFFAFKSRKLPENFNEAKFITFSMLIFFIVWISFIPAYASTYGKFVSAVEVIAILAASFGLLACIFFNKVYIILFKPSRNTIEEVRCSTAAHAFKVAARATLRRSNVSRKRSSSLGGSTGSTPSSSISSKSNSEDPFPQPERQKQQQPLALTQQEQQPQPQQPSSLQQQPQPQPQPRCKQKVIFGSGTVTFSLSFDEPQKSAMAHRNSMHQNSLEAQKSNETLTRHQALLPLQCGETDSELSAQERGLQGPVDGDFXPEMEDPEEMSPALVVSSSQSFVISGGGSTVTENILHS

cCaSR [2] = target: T1, cCaSR
cCaSR [3] = target: T1, cCaSR; experiment: cell-based
cCaSR [4] = target: T1, cCaSR; experiment: cCaSR transiently expressed in HEK293/natClytin, agonist luminescence assay; type: cell-based
Experimental: (§1) The coding sequence of the Felis catus[52] and Homo sapiens[53] CaSR gene was synthesised by GeneArt (Thermo Fisher Scientific). The cat coding sequence was excised from the GeneArt construct and inserted in pcDNA3.1 for constitutive and transient expression or pcDNA5/ TO for inducible expression. For the human sequence the pcDNA6 vector as delivered by GeneArt was used without further sub-cloning.
(§2) All transient transfections were performed with Lipofectamine 2000 (Invitrogen) according to the manufacturer’s protocol.

hCaSR = target: T2, hCaSR (Homo sapiens, UniProt P41180); experiment: hCaSR transiently expressed in HEK293/natClytin, agonist luminescence assay; type: cell-based
T2 construct: expressed in transfected cells; host or cells: HEK293/natClytin (transient, pcDNA6 as delivered by GeneArt)
T2 sequence (P41180 20-1078): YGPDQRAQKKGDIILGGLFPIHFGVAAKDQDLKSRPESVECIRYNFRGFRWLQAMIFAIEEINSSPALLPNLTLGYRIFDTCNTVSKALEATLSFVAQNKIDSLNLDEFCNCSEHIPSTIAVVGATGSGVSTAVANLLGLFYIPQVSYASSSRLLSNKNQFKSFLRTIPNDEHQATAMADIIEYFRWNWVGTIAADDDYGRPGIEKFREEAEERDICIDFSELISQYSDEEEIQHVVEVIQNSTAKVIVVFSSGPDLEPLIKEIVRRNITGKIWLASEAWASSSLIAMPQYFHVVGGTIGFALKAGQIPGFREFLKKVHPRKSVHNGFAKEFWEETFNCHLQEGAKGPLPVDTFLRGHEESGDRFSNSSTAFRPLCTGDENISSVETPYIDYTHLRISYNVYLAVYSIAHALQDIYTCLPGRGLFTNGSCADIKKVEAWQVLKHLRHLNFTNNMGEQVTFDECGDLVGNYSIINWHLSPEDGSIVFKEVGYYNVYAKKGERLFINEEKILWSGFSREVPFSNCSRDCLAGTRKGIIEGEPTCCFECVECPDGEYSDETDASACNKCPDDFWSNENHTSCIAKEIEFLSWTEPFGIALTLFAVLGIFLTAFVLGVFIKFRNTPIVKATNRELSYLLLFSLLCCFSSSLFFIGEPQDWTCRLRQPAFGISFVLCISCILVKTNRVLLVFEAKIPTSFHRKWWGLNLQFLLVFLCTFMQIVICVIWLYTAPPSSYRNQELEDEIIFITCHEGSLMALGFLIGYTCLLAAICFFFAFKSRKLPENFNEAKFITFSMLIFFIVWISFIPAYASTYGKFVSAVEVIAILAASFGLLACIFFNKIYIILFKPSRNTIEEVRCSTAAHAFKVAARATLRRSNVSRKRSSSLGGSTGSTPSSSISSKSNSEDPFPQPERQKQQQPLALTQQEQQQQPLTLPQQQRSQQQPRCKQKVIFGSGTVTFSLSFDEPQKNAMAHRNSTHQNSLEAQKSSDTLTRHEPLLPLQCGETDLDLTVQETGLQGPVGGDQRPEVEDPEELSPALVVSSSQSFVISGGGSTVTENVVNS
Experimental: as §1, §2

[5] = target: domestic cat Calcium Sensing Receptor (cCaSR) (Felis catus)
[6] = target: domestic cat Calcium Sensing Receptor (cCaSR) (Felis catus); remark: listed apart in the source
cCaSR [7] = experiment: cCaSR PAM luminescence assay, double injection with 0.5 mM CaCl2, HEK293/T-REx/natClytin-cCaSR; conditions: Supplementary Table I, PAM assay, dash = no activity
cCaSR [8] = conditions: for EC50 Ago (M): Supplementary Table I, dash = no activity
cCaSR [9] = experiment: cCaSR transiently expressed in HEK293/natClytin, agonist luminescence assay; type: cell-based, Felis catus; conditions: transiently expressed cCaSR; > 3 mM = maximal response not reached
Experimental: as §1, §2

[10] = EC50 Ago (M), Supplementary Table I, agonist assay, > 0.01 M = maximal response not reached
[11] = EC50 Value (heat map Fig. 5), cCaSR agonists, heat map
[12] = cCaSR activity, agonist assay, stable inducible cCaSR line, at least three wells
[13] = transiently expressed cCaSR, > 3 mM = maximal response not reached, read-out: cCaSR EC50
[14] = transiently expressed hCaSR, > 3 mM = maximal response not reached, read-out: hCaSR EC50
[15] = EC50 (M), agonist assay, stable inducible cCaSR line, > 0.01 M = maximal response not reached
[16] = cCaSR stable EC50(mM), stably expressed cCaSR, Fig. 6b, > 3 mM = maximal response not reached
[17] = read-out: cCaSR activity, agonist assay, stable inducible cCaSR line, at least three wells

EC50 PAM (M) (cCaSR [1])	pEC50 (cCaSR [3]; [12])	pEC50 (cCaSR [4]; [13])	pEC50 (hCaSR; [14])	EC50 (cCaSR [3]; [15])	EC50 (cCaSR [3]; [16])	Compound	EC50 (cCaSR [3]; [10])	also measured
-	2.00 to 3.00	< 2.52	< 2.52	0.00265 M	> 0.003 M	CC[C@H](NC(=O)CC[C@H](N)C(=O)O)C(=O)NCC(=O)O [γ-Glu-Abu-Gly]		
						Poly-L-arginine (peptide)		EC50 of agonist activity, luminescence (natClytin) in HEK T-Rex/natClytin cells inducibly expressing cCaSR, calcium-free buffer; activity grade +++ [5]: 0.00101 mM; EC50 for cCaSR (stably and transiently expressed) against the EC50 for hCaSR, luminescence dose response in HEK293/natClytin cells [6]: 2.5 fold
		3.55	3.80		4e-05 M	NC[C@H]1O[C@H](O[C@H]2[C@H](O)[C@@H](O[C@H]3O[C@H](CO)[C@@H](O)[C@H](N)[C@H]3O)[C@H](N)C[C@@H]2N)[C@H](N)C[C@@H]1O [Tobramycin, reference compound]		EC50 Ago (M) (cCaSR [2]; Supplementary Table I, agonist assay, dash = no activity): -
-	< 2.00	< 2.52	< 2.52		> 0.003 M	C[C@H](NC(=O)CC[C@H](N)C(=O)O)C(=O)O [γ-Glu-Ala]		pEC50 (cCaSR [3]; [11]): 2.53
-	2.00 to 3.00	< 2.52	< 2.52	0.00452 M	> 0.003 M	CC(C)[C@H](NC(=O)CC[C@H](N)C(=O)O)C(=O)O [γ-Glu-Val]	0.00452 M	
-	2.00 to 3.00	1.93	1.92	0.00411 M		N[C@@H](CC(=O)O)C(=O)O [L-Aspartic acid]	0.00411 M	agonist activity on cCaSR (in words) (cCaSR [2]): strong agonist activity
						CNc1ccc2oc(C[C@@H]3OC4(CC[C@@H]3C)O[C@H](C(C)C(=O)c3ccc[nH]3)[C@H](C)C[C@H]4C)nc2c1C(=O)O (some centres unmarked) [Calcium Ionophore, reference compound]		EC50 PAM (M) (cCaSR [7]): -; EC50 Ago (M) (cCaSR [8]; agonist assay): -
-		2.44	2.39	0.00422 M	0.0069 M	CC(C)[C@H](NC(=O)CC[C@H](N)C(=O)O)C(=O)NCC(=O)O [γ-Glu-Val-Gly]		
		< 2.52	< 2.52		> 0.003 M	NCCCCN [Putrescine]		

Compound	EC50 PAM (M) (cCaSR [1])	pEC50 (cCaSR [3]; [12])	pEC50 (cCaSR [4]; [13])	pEC50 (hCaSR; [14])	EC50 (cCaSR [3]; [15])	EC50 (cCaSR [3]; [16])	EC50 (cCaSR [3]; [10])	also measured
N[C@@H](CCC(=O)O)C(=O)O [L-Glutamic acid]	-	< 2.00	< 2.52	< 2.52			0.00916 M	agonist activity on cCaSR (in words) (cCaSR [2]): strong agonist activity; pEC50 (cCaSR [3]; [11]): 2.04; EC50 (cCaSR [3]; cCaSR stable EC50(mM), […], > 3 mM = maximal response not reached): > 0.003 M
NCCCCNCCCN [Spermidine]	-	2.00 to 3.00			0.00249 M	0.0023 M	0.0025 M	agonist activity on cCaSR (in words) (cCaSR [2]): agonists; pEC50 (cCaSR [4]): 2.96; pEC50 (hCaSR): 2.89
Poly-L-arginine	-							cCaSR stable EC50 (cCaSR [2]): 8.0 µg/mL; pEC50 (cCaSR [2]; agonist assay, stable inducible cCaSR line, > 0.01 M = maximal response not reached): 5.99; pEC50 (cCaSR [2]; read-out: EC50 Ago, Supplementary Table I, agonist assay, > 0.01 M = maximal response not reached): 5.99; pEC50 (cCaSR [2]; [17]): > 3.00; cCaSR EC50 (cCaSR [4]; transiently expressed cCaSR): 2.9 µg/mL; hCaSR EC50 (hCaSR; transiently expressed hCaSR): 2.5 µg/mL
CN[C@@H]1[C@@H](O)[C@@H](O[C@@H]2[C@@H](O)[C@H](O[C@H]3O[C@H]([C@@H](C)O)[C@@H](O)[C@H](O)[C@H]3N)[C@@H](N)C[C@H]2N)OC[C@]1(C)O [Geneticin, reference compound]				2.44				EC50 PAM (M) (cCaSR [7]): -; EC50 Ago (M) (cCaSR [8]; agonist assay): -; pEC50 (cCaSR [8]; [17]): < 2.00; pEC50 (cCaSR [8]; read-out: cCaSR stable EC50, […], > 3 mM = maximal response not reached): 2.96; pEC50 (cCaSR [9]): 2.52
